Reference: patent US20230312587A1, “PTERIDINONE COMPOUNDS AND USES THEREOF” (Vertex Pharmaceutical Incorporated, priority 2018, published 2023)
Where two headings read alike, the source gives them in different places.

Columns and labels:
Type in all cases: cell-based
[1] = test system: β-catenin-TCF-mediated reporter transcription activity in Colo 205 cells; assay: Colo 205 reporter assay (TCF/LEF luciferase); settings: five hours after addition of compound
In short: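 Luciferase signal from a TCF/LEF-driven reporter, stably integrated in Colo 205 colon cancer cells, was measured 5 h after compound addition.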

Colo-205 cells = assay: Calcium flux assay (FLIPR Calcium 5); settings: Homo sapiens, COLO 205, 0.6 h, FLIPR Calcium 5, measured over 36 minutes
Description: Compounds described herein induced ER stress by causing intracellular calcium flux. Calcium flux was measured in Colo-205 cells using the FLTPR® Calcium 5 Assay Kit according to manufacter's protocol (Molecular Devices, Cat. #R8186) on a FLIPR3 system (Molecular Devices). Calcium flux is measured over 36 minutes. The Colo-205 calcium flux assay data are summarized in Table 47: A<0.6 μM; 0.6 μM≤B<2.0 μM; 2.0 μM≤C<10.0 μM; D≥10.0 μM.

Hek293 empty vector = assay: In vitro cell viability (CellTiter-Glo), Hek293 empty vector; settings: Homo sapiens, HEK293; read-out: Hek293 empty vector viability
Description: HEK293 (ATCC, catalog #CRL-1573) cells are plated in 10 cm dishes (Corning, product #430167) into 10 mL of complete DMEM cell culture media [DMEM (Life Technologies, product #11960-051) media supplemented with 10% FBS (Hyclone, catalog #SH30071.03), antimycotic/antibiotic (Life Technologies, product #15240-062), and Glutamax (Life Technologies, product #35050-061)] at 3×10^6 cells per dish. Cells are allowed to attach and grow overnight at 37° C. in humidified 5% CO2. Cells are co-transfected with pVSV-G, pCMV-Gag/Pol and pCLPCX_WFS1 using Fugene 6 (Promega, catalog #E2691) according to manufacturer's protocol. Separately, cells are co-transfected with pVSV-G, pCMV-Gag/Pol and pCLPCX to produce control retrovirus. Cell culture media containing retrovirus (viral supernatant) is collected at 48 and 72 hours following transfection, filtered through a 0.4 uM filter, and stored at −80° C.
HEK293 cells are plated in 6 well plates (Corning, product #3516) in 2 mL of complete DMEM cell culture media at 1×10^5 cells well and allowed to attach and grow overnight at 37° C. in humidified 5% CO2. The following day, the media is replaced with viral supernatant to which 10 ug/ml of Polybrene® (Santa Cruz Biotech, catalog #sc-134220) is added. Viral supernatant is replaced 24 hours later with complete DMEM media. Transduced cells are selected in complete DMEM cell culture media containing 1 microgram/mL of puromycin (Life Technologies, catalog #A1113803).
HEK293 cells containing empty pCLPCx vector (HEK293 empty), HEK293 cells stably over-expression WFS1 (HEK293 WFS1), HepG2, and HepG2 cells where WFS1 was depleted via CRISPR/Cas9 (HepG2 WFS1 KO) cells were plated into 96-well black plates (Corning, product #3904) in 100 microliters of complete DMEM cell culture media [DMEM (Life Technologies, product #11960-051) media supplemented with 10% FBS (Hyclone, catalog #SH30071.03), antimycotic/antibiotic (Life Technologies, product #15240-062), and Glutamax (Life Technologies, product #35050-061)] at 1,000 (HEK293) or 5,000 (HepG2) cells per well. Cells were allowed to attach and grow overnight, after which compounds are added at various concentrations. Cell viability was assessed 96 hrs after compound addition with CellTiter-Glo reagent (Promega, catalog #G7570) according to manufacturer's protocol and measurement on a Pherastar luminescence plate reader (BMG Labtech).
The IC50s for the viability of both the Hek293 empty vector and WFS1 over-expressing cells are summarized in Table 47: A<0.06 μM; 0.06 μM≤B<0.6 μM; 0.6 μM≤C<3.0 μM; D≥3.0 μM.

[2] = Homo sapiens, COLO 205, 5 h, Colo 205 TCF/LEF luciferase reporter, read-out: TCF reporter Colo205 IC50

Structure (SMILES): Cc1nc(N[C@H]2CC[C@H](Oc3ccc(C(F)(F)F)nc3)C2)nc2c1NC(=O)[C@H](C)N2C (single isomer, unassigned) [Compound 376]
- IC50 ([1]; Colo 205 TCF/LEF luciferase reporter, read-out: TCF reporter Colo205 IC50): 1 to 5 µM
- EC50 (Colo-205 cells): 0.6 to 2 µM
- IC50 (Hek293 empty vector): ≥ 3 µM

Structure (SMILES): Cc1nc(NCc2cnn(Cc3ccc(C(F)(F)F)nc3C(C)C)c2)nc2c1NC(=O)[C@H](C)N2C [Compound 388, (7S)-2-(((1-((2-isopropyl-6-(trifluoromethyl)pyridin-3-yl)methyl)-1H-pyrazol-4-yl)methyl)amino)-4,7,8-trimethyl-7,8-dihydropteridin-6(5H)-one]
- IC50 [1, 2]: < 0.3 µM
- EC50 (Colo-205 cells): < 0.6 µM
- IC50 (Hek293 empty vector): ≥ 3 µM

Structure (SMILES): Cc1nc(NCc2cnn(Cc3ccc(C(F)(F)F)cc3)c2)nc2c1NC(=O)[C@H](C)N2C [Compound 149, (7S)-4,7,8-trimethyl-2-(((1-(4-(trifluoromethyl)benzyl)-1H-pyrazol-4-yl)methyl)amino)-7,8-dihydropteridin-6(5H)-one]
- IC50 [1, 2]: < 0.3 µM
- EC50 (Colo-205 cells): < 0.6 µM
- IC50 (Hek293 empty vector): ≥ 3 µM

Structure (SMILES): Cc1nc(NCc2cnn(Cc3ccc(F)nc3)c2)nc2c1NC(=O)[C@H](C(C)C)N2C [Compound 384, (7S)-2-(((1-((6-fluoropyridin-3-yl)methyl)-1H-pyrazol-4-yl)methyl)amino)-7-isopropyl-4,8-dimethyl-7,8-dihydropteridin-6(5H)-one]
- IC50 [1, 2]: < 0.3 µM
- EC50 (Colo-205 cells): 0.6 to 2 µM
- IC50 (Hek293 empty vector): ≥ 3 µM

Structure (SMILES): Cc1nc(NCc2cnn([C@@H](C)c3ccc(C(F)(F)F)nc3)c2)nc2c1NC(=O)[C@H](C)N2C [Compound 174, (7S)-4,7,8-Trimethyl-2-(((1-((S)-1-(6-(trifluoromethyl)pyridin-3-yl)ethyl)-1H-pyrazol-4-yl)methyl)amino)-7,8-dihydropteridin-6(5H)-one]
- IC50 [1, 2]: < 0.3 µM
- EC50 (Colo-205 cells): 0.6 to 2 µM
- IC50 (Hek293 empty vector): ≥ 3 µM

Structure (SMILES): Cc1nc(NCc2cnn(Cc3ccc(C(F)(F)F)nc3)c2)nc2c1NC(=O)C1(CCC1)N2C [Compound 398, 4′,8′-dimethyl-2′-(((1-((6-(trifluoromethyl)pyridin-3-yl)methyl)-1H-pyrazol-4-yl)methyl)amino)-5′,8′-dihydro-6′H-spiro[cyclobutane-1,7′-pteridin]-6′-one]
- IC50 ([1]; Homo sapiens, COLO 205, 5 h, Colo 205 cells with stably transfected TCF/LEF luciferase reporter, read-out: TCF reporter Colo205): < 0.3 µM
- EC50 (Colo-205 cells): 0.6 to 2 µM
- IC50 (Hek293 empty vector): ≥ 3 µM

Structure (SMILES): Cc1nc(NCc2cnn(CCc3ccc(F)cc3)c2)nc2c1N(C)C(=O)[C@H](C)N2C [Compound 8, (7S)-2-(((1-(4-fluorophenethyl)-1H-pyrazol-4-yl)methyl)amino)-4,5,7,8-tetramethyl-7,8-dihydropteridin-6(5H)-one]
- IC50 [1, 2]: 0.3 to 1 µM
- EC50 (Colo-205 cells): 2 to 10 µM
- IC50 (Hek293 empty vector): ≥ 3 µM

Structure (SMILES): Cc1nc(NCc2cnn(Cc3ccc(C(F)(F)F)nc3C(C)O)c2)nc2c1NC(=O)[C@H](C)N2C (stereo partly drawn) [Compound 419, (7S)-2-(((1-((2-((S)-1-hydroxyethyl)-6-(trifluoromethyl)pyridin-3-yl)methyl)-1H-pyrazol-4-yl)methyl)amino)-4,7,8-trimethyl-7,8-dihydropteridin-6(5H)-one]
- IC50 [1, 2]: < 0.3 µM
- EC50 (Colo-205 cells): 2 to 10 µM
- IC50 (Hek293 empty vector): ≥ 3 µM

Structure (SMILES): Cc1nc(N[C@H]2C[C@H](Oc3cc(F)c(F)c(F)c3)C2)nc2c1NC(=O)[C@H](C)N2C [Compound 246, (7S)-4,7,8-trimethyl-2-((trans-3-(3,4,5-trifluorophenoxy)cyclobutyl)amino)-7,8-dihydropteridin-6(5H)-one]
- IC50 [1, 2]: < 0.3 µM
- EC50 (Colo-205 cells): ≥ 10 µM
- IC50 (Hek293 empty vector): ≥ 3 µM

Structure (SMILES): Cc1nc(NCc2cnn([C@@H]3C[C@@H]3c3ccc(F)cc3)c2)nc2c1NC(=O)[C@H](C)N2C [Compound 154, (7S)-2-(((1-((1R,2R)-2-(4-fluorophenyl)cyclopropyl)-1H-pyrazol-4-yl)methyl)amino)-4,7,8-trimethyl-7,8-dihydropteridin-6(5H)-one]
- IC50 [1, 2]: < 0.3 µM
- EC50 (Colo-205 cells): < 0.6 µM
- IC50 (Hek293 empty vector): ≥ 3 µM

Structure (SMILES): Cc1nc(NCc2cn(Cc3ccc(C(F)(F)F)nc3)cn2)nc2c1NC(=O)[C@H](C)N2C [Compound 428, (S)-4,7,8-trimethyl-2-(((1-((6-(trifluoromethyl)pyridin-3-yl)methyl)-1H-imidazol-4-yl)methyl)amino)-7,8-dihydropteridin-6(5H)-one]
- IC50 [1, 2]: ≥ 5 µM
- EC50 (Colo-205 cells): ≥ 10 µM
- IC50 (Hek293 empty vector): ≥ 3 µM

Structure (SMILES): Cc1nc(N[C@H]2C[C@H](Oc3ccc(F)nc3)C2)nc2c1NC(=O)[C@H](C)N2C [Compound 357, (7S)-2-((trans-3-((6-fluoropyridin-3-yl)oxy)cyclobutyl)amino)-4,7,8-trimethyl-7,8-dihydropteridin-6(5H)-one]
- IC50 [1, 2]: 1 to 5 µM
- EC50 (Colo-205 cells): 0.6 to 2 µM
- IC50 (Hek293 empty vector): ≥ 3 µM

Structure (SMILES): Cc1nc(N[C@H]2C[C@H](COc3cc(F)c(F)c(F)c3)C2)nc2c1NC(=O)[C@H](C)N2C [Compound 258, (7S)-4,7,8-trimethyl-2-((trans-3-((3,4,5-trifluorophenoxy)methyl)-cyclobutyl)amino)-7,8-dihydropteridin-6(5H)-one]
- IC50 [1, 2]: 1 to 5 µM
- EC50 (Colo-205 cells): 0.6 to 2 µM
- IC50 (Hek293 empty vector): ≥ 3 µM

Structure (SMILES): Cc1nc(NCc2cnn([C@@H]3CCN(c4ccc(F)cc4)C3)c2)nc2c1NC(=O)[C@H](C)N2C [Compound 170, (7S)-2-(((1-((R)-1-(4-fluorophenyl)pyrrolidin-3-yl)-1H-pyrazol-4-yl)methyl)amino)-4,7,8-trimethyl-7,8-dihydropteridin-6(5H)-one]
- IC50 [1, 2]: < 0.3 µM
- EC50 (Colo-205 cells): < 0.6 µM
- IC50 (Hek293 empty vector): ≥ 3 µM

Structure (SMILES): Cc1nc(NCc2cnn(Cc3ccc(F)cc3)c2)nc2c1NC(=O)[C@H](C)N2C [Compound 4, (7S)-2-(((1-(4-fluorobenzyl)-1H-pyrazol-4-yl)methyl)amino)-4,7,8-trimethyl-7,8-dihydropteridin-6(5H)-one]
- IC50 [1, 2]: < 0.3 µM
- EC50 (Colo-205 cells): < 0.6 µM
- IC50 (Hek293 empty vector): ≥ 3 µM

Structure (SMILES): Cc1nc(NCc2cnn(Cc3ccc(C(F)(F)F)nc3)c2)nc2c1NC(=O)[C@H](C(C)C)N2C [Compound 383, (7S)-7-isopropyl-4,8-dimethyl-2-(((1-((6-(trifluoromethyl)pyridin-3-yl)methyl)-1H-pyrazol-4-yl)methyl)amino)-7,8-dihydropteridin-6(5H)-one]
- IC50 [1, 2]: < 0.3 µM
- EC50 (Colo-205 cells): 0.6 to 2 µM
- IC50 (Hek293 empty vector): ≥ 3 µM

Structure (SMILES): Cc1nc(C(F)(F)F)ccc1Cn1cc(CNc2nc(C)c3c(n2)N(C)[C@@H](C)C(=O)N3)cn1 [Compound 188, (S)-4,7,8-trimethyl-2-(((1-((2-methyl-6-(trifluoromethyl)pyridin-3-yl)methyl)-1H-pyrazol-4-yl)methyl)amino)-7,8-dihydropteridin-6(5H)-one]
- IC50 [1, 2]: < 0.3 µM
- EC50 (Colo-205 cells): 0.6 to 2 µM
- IC50 (Hek293 empty vector): ≥ 3 µM

Structure (SMILES): Cc1ccc(Cn2cc(CNc3nc(C)c4c(n3)N(C)[C@@H](C)C(=O)N4)cn2)cn1 [Compound 173, (7S)-4,7,8-trimethyl-2-(((1-((6-methylpyridin-3-yl)methyl)-1H-pyrazol-4-yl)methyl)amino)-7,8-dihydropteridin-6(5H)-one]
- IC50 [1, 2]: 1 to 5 µM
- EC50 (Colo-205 cells): 2 to 10 µM
- IC50 (Hek293 empty vector): ≥ 3 µM

Structure (SMILES): Cc1nc(N[C@@H]2CC[C@@H](Oc3cc(F)c(F)c(F)c3)C2)nc2c1N(C)C(=O)[C@H](C)N2C [Compound 272, (S)-4,5,7,8-tetramethyl-2-(((1R,3R)-3-(3,4,5-trifluorophenoxy)cyclopentyl)amino)-7,8-dihydropteridin-6(5H)-one]
- IC50 [1, 2]: < 0.3 µM
- EC50 (Colo-205 cells): 0.6 to 2 µM
- IC50 (Hek293 empty vector): ≥ 3 µM
